Assay results as given in ChEMBL document CHEMBL4665688, “Discovery of AB680: A Potent and Selective Inhibitor of CD73” (J Med Chem, 2020).

Experiments:
[1] = molecular target: T1, Ectonucleoside triphosphate diphosphohydrolase 8 (Homo sapiens, UniProt Q5MY95); assay: Inhibition of NTPDase 8 (unknown origin) expressed in CHO cells using ATP as substrate preincubated for 1 hr followed by substrate addition and measured after 50 mins by PiColorLock gold reagent based colorimetric assay; assay type: cell-based
T1 sequence (Q5MY95 whole entry): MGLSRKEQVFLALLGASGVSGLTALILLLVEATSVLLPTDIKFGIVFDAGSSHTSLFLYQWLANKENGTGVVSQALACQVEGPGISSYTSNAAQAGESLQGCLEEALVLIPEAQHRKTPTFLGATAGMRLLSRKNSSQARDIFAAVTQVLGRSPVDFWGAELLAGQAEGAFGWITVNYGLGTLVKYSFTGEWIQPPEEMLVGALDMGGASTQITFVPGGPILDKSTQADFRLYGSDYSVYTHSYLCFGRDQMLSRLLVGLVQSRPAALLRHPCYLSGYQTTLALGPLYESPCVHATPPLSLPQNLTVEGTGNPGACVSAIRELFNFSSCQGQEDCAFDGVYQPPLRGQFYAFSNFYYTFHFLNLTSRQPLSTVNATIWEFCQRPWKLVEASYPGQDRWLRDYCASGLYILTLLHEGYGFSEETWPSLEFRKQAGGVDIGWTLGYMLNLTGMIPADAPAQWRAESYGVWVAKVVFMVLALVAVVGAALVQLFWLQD

[2] = Fraction unbound in mouse plasma; assay type: ADME, cell-free; set-up: dose or concentration left out as unconfirmed
[3] = Clearance in Sprague-Dawley rat at 0.5 mg/kg, iv; assay type: ADME, organism-based; conditions: in vivo
[4] = Fraction unbound in dog plasma; assay type: ADME, cell-free, Canis lupus familiaris
[5] = molecular target: T2, Ectonucleoside triphosphate diphosphohydrolase 3 (Homo sapiens, UniProt O75355); assay: Inhibition of NTPDase 3 (unknown origin) expressed in CHO cells using ATP as substrate preincubated for 1 hr followed by substrate addition and measured after 50 mins by PiColorLock gold reagent based colorimetric assay; assay type: cell-based
T2 sequence (O75355 whole entry): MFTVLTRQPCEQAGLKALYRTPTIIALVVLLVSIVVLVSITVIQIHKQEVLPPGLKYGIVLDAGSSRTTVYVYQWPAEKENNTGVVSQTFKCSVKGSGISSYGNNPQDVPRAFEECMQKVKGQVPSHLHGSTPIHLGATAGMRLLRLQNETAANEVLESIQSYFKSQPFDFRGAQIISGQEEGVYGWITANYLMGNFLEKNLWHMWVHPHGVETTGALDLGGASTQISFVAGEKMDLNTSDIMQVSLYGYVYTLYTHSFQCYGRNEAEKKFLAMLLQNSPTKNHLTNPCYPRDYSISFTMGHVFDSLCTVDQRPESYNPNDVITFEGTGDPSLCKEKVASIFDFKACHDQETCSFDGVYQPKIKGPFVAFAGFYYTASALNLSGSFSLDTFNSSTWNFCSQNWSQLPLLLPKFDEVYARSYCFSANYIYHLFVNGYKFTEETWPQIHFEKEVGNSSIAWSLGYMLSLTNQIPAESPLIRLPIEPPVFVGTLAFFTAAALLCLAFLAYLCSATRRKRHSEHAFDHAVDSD

[6] = Half life in mouse at 0.5 mg/kg, iv; assay type: ADME, organism-based; conditions: in vivo
[7] = Volume of distribution at steady state in Sprague-Dawley rat at 0.5 mg/kg, iv; assay type: ADME, organism-based; conditions: in vivo, read-out: Vdss
[8] = molecular target: T3, Ectonucleoside triphosphate diphosphohydrolase 1 (Homo sapiens, UniProt P49961); assay: Inhibition of CD39 (unknown origin)
T3 sequence (P49961 whole entry): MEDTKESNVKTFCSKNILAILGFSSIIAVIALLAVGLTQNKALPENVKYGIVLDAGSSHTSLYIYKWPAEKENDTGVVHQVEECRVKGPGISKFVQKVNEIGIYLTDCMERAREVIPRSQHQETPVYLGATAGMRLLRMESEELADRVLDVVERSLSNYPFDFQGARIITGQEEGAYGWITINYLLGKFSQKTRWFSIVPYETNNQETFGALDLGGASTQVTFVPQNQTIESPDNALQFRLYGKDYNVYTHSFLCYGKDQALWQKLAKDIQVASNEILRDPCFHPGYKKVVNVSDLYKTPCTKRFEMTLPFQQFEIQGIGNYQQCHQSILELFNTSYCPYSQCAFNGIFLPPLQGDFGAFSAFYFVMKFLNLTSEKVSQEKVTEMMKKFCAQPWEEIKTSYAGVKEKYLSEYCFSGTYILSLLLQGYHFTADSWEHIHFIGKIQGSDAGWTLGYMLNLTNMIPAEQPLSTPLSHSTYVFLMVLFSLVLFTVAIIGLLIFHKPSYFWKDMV

[9] = Fraction unbound in Sprague-Dawley rat plasma; assay type: ADME, cell-free
[10] = molecular target: T4, 5'-nucleotidase (Mus musculus, UniProt Q61503); assay: Inhibition of CD73 in mouse CD8-positive T cells using AMP as substrate preincubated for 60 mins followed by substrate addition and measured after 2.5 hrs by PiColorLock gold reagent based colorimetric assay; assay type: cell-based, CD8-positive T cell
T4 sequence (Q61503 whole entry): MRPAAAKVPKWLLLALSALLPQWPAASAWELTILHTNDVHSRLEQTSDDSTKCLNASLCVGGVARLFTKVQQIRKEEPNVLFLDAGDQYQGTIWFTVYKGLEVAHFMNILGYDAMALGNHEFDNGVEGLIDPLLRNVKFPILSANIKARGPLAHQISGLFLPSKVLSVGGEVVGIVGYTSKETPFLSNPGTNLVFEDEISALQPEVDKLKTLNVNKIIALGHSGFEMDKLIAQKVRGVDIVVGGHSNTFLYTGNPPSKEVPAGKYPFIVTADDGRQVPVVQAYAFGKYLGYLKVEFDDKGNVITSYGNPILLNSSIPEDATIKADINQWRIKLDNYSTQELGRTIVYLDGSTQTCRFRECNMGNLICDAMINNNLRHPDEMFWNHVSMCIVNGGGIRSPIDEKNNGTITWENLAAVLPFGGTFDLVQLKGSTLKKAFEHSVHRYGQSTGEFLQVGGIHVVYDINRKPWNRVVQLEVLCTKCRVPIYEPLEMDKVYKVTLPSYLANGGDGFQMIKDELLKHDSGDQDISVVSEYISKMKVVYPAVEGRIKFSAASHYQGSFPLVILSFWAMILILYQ

IC50 [1] | fraction unbound [2] | clearance [3] | fraction unbound [4] | IC50 [5] | half-life [6] | Vd [7] | IC50 [8] | fraction unbound [9] | IC50 [10] | SMILES
> 10 µM | 0.0089 | 0.333 mL/min/kg | 0.083 | > 10 µM | 3.5 h | 0.12 L/kg | > 10 µM | 0.0017 | 0.00066 µM | C[C@H](Nc1cc(Cl)nc2c1cnn2[C@@H]1O[C@H](COP(=O)(O)CP(=O)(O)O)[C@@H](O)[C@H]1O)c1ccccc1F
> 10 µM | 0.029 | 1.07 mL/min/kg | 0.187 | > 10 µM | 2 h | 0.12 L/kg | > 10 µM | 0.0095 | 0.00016 µM | C[C@H](Nc1nc(Cl)nc2c1cnn2[C@@H]1O[C@H](COP(=O)(O)CP(=O)(O)O)[C@@H](O)[C@H]1O)c1ccccc1
> 10 µM | 0.0065 | 0.15 mL/min/kg | 0.102 | > 10 µM | 6.5 h | 0.12 L/kg | > 10 µM | 0.0016 | 0.00083 µM | C[C@H](Nc1cc(Cl)nc2c1cnn2[C@@H]1O[C@H](COP(=O)(O)CP(=O)(O)O)[C@@H](O)[C@H]1O)c1ccc(F)cc1
